Experimental data: PMC6332165, “Study of the Relationships between the Structure, Lipophilicity and Biological Activity of Some Thiazolyl-carbonyl-thiosemicarbazides and Thiazolyl-azoles” (Molecules, 2015)

Tests used:
[1] = Lipophilicity by reversed-phase thin-layer chromatography (RP-TLC), isopropanol-water mobile phase; format: physicochemical; details: RP-18F254s TLC, iso-propanol-water 45-65% (v/v); for RM0 (lipophilicity estimation parameter, intercept of RM = RM0 + bC): extrapolated to pure water
Description: Some of the parameters resulting from a RP-TLC may be associated to the lipophilic character of the analytes. The retention parameters (RM) are calculated by means of well-known Batte-Smith and Westall Equation (1): RM = log (1/RF − 1) (1)
Generally, the RM values determined by RP-TLC are linearly dependent on the concentration of the organic modifier (C) in the mobile phase Equation (2): RM = RM0 + bC (2) where b and RM0 are, respectively, the slope and the intercept of Equation (2). […] Additionally, it has been stated that not only the RM0, but also the slope, b, as a characteristic of the specific hydrophobic surface area of the compounds, can be used as an estimation of lipophilicity. The advantages of TLC methods consist in the small quantity of compounds needed for the determination, and the rapidity and simplicity of the method. Also, they are inexpensive, rapid and easy to perform.
Chromatography was performed on 20 × 20 cm RP-18F254s TLC precoated silica plates (Merck; Darmstadt, Germany). Solutions (1 mg/mL) of the tested compounds were prepared in iso-propanol, and 3 μL aliquots were spotted in duplicate on the plates by hand, 10 mm from the bottom edge and 20 mm apart. The mobile phases were composed of the iso-propanol-water binary mixtures, with a varying content of organic modifier between 45% and 65% (v/v) in 5% increments, as the study compounds differed considerably in their retention. Chromatography was performed in a normal developing chamber at room temperature, the developing distance being 10 cm. The chromatography chamber was saturated with the mobile phase for 30 min before use. After the development (30–60 min), the plates were air dried at room temperature and examined under a UV lamp (λ = 254 nm), and the RF (retardation factor) values were measured manually by a digital caliper. The experiments were performed in triplicate.

[2] = system: turpentine oil-induced inflammation; design: method as in PMID 23504664; Leukocytes (L, leukocytes count):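 lower leukocyte count means stronger anti-inflammatory effect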; details: mean ± SD; cited from earlier work
[3] = system: phagocytes; design: method as in PMID 23504664; details: turpentine oil-induced inflammation, mean ± SD; cited from earlier work
[4] = system: nitric oxide (NO) synthesis; design: method as in PMID 23504664; unit not given here; details: turpentine oil-induced inflammation, mean ± SD; cited from earlier work
[5] = system: oxidative stress; design: method as in PMID 23504664; details: turpentine oil-induced inflammation, mean ± SD; cited from earlier work

Cc1nc(-c2ccccc2)sc1C(=O)NNC(=S)Nc1ccccc1 [Th-1]
b (slope of RM = RM0 + bC, specific hydrophobic surface area) [1]: −2.627
RM0 (lipophilicity estimation parameter, intercept of RM = RM0 + bC) [1]: 1.369
Leukocytes (L, leukocytes count) [2]: 5587.5 ± 455
PMN (polymorphonuclear leukocytes, differential leucocyte count) [2]: 60.4 ± 4.1%
PA (phagocytic activity) [3]: 18.5 ± 1.8
PI (phagocytosis index) [3]: 21.5 ± 4.6%
NO (nitric oxide synthesis) [4]: 50.479 ± 5.7
OSI (oxidative stress index) [5]: 4.66 ± 2.2
TAR (total antioxidant response) [5]: 1.108 ± 0.003
TOS (total oxidative status) [5]: 51.622 ± 6.2

Cc1ccc(-c2nc(C)c(C(=O)NNC(=S)Nc3ccccc3)s2)cc1 [Th-2]
b (slope of RM = RM0 + bC, specific hydrophobic surface area) [1]: −2.853
RM0 (lipophilicity estimation parameter, intercept of RM = RM0 + bC) [1]: 1.595
Leukocytes (L, leukocytes count) [2]: 6543 ± 271
PMN (polymorphonuclear leukocytes, differential leucocyte count) [2]: 60.6 ± 3.1%
PA (phagocytic activity) [3]: 22.5 ± 2.8
PI (phagocytosis index) [3]: 21.5 ± 2.8%
NO (nitric oxide synthesis) [4]: 51.827 ± 6.3
OSI (oxidative stress index) [5]: 5.76 ± 5.3
TAR (total antioxidant response) [5]: 1.099 ± 0.003
TOS (total oxidative status) [5]: 63.265 ± 5.4

Cc1nc(-c2ccc(Br)cc2)sc1C(=O)NNC(=S)Nc1ccccc1 [Th-3]
b (slope of RM = RM0 + bC, specific hydrophobic surface area) [1]: −2.739
RM0 (lipophilicity estimation parameter, intercept of RM = RM0 + bC) [1]: 1.600
Leukocytes (L, leukocytes count) [2]: 4987 ± 133
PMN (polymorphonuclear leukocytes, differential leucocyte count) [2]: 63.6 ± 3.9%
PA (phagocytic activity) [3]: 31 ± 1.8
PI (phagocytosis index) [3]: 21.5 ± 0.9%
NO (nitric oxide synthesis) [4]: 52.838 ± 8.9
OSI (oxidative stress index) [5]: 3.62 ± 2.9
TAR (total antioxidant response) [5]: 1.095 ± 0.003
TOS (total oxidative status) [5]: 39.601 ± 7.9

CNC(=S)NNC(=O)c1sc(-c2ccccc2)nc1C [Th-4]
b (slope of RM = RM0 + bC, specific hydrophobic surface area) [1]: −2.355
RM0 (lipophilicity estimation parameter, intercept of RM = RM0 + bC) [1]: 0.986
Leukocytes (L, leukocytes count) [2]: 12,218.8 ± 1341
PMN (polymorphonuclear leukocytes, differential leucocyte count) [2]: 82.8 ± 4.1%
PA (phagocytic activity) [3]: 29 ± 1.8
PI (phagocytosis index) [3]: 22.5 ± 3.5%
NO (nitric oxide synthesis) [4]: 47.501 ± 2.8
OSI (oxidative stress index) [5]: 4.49 ± 3.6
TAR (total antioxidant response) [5]: 1.109 ± 0.006
TOS (total oxidative status) [5]: 49.823 ± 3.6

CNC(=S)NNC(=O)c1sc(-c2ccc(C)cc2)nc1C [Th-5]
b (slope of RM = RM0 + bC, specific hydrophobic surface area) [1]: −2.502
RM0 (lipophilicity estimation parameter, intercept of RM = RM0 + bC) [1]: 1.161
Leukocytes (L, leukocytes count) [2]: 11,633.3 ± 154
PMN (polymorphonuclear leukocytes, differential leucocyte count) [2]: 59.8 ± 3.6%
PA (phagocytic activity) [3]: 22.5 ± 0.9
PI (phagocytosis index) [3]: 19.5 ± 2.3%
NO (nitric oxide synthesis) [4]: 47.024 ± 8.9
OSI (oxidative stress index) [5]: 4.7 ± 3.1
TAR (total antioxidant response) [5]: 1.096 ± 0.001
TOS (total oxidative status) [5]: 51.557 ± 17.1

CNC(=S)NNC(=O)c1sc(-c2ccc(Br)cc2)nc1C [Th-6]
b (slope of RM = RM0 + bC, specific hydrophobic surface area) [1]: −2.740
RM0 (lipophilicity estimation parameter, intercept of RM = RM0 + bC) [1]: 1.398
Leukocytes (L, leukocytes count) [2]: 6056.25 ± 862
PMN (polymorphonuclear leukocytes, differential leucocyte count) [2]: 70.4 ± 2.9%
PA (phagocytic activity) [3]: 18 ± 1.5
PI (phagocytosis index) [3]: 13 ± 3.2%
NO (nitric oxide synthesis) [4]: 50.591 ± 9.1
OSI (oxidative stress index) [5]: 3.93 ± 2.6
TAR (total antioxidant response) [5]: 1.097 ± 0.006
TOS (total oxidative status) [5]: 43.108 ± 5.6

C=CCNC(=S)NNC(=O)c1sc(-c2ccccc2)nc1C [Th-7]
b (slope of RM = RM0 + bC, specific hydrophobic surface area) [1]: −2.484
RM0 (lipophilicity estimation parameter, intercept of RM = RM0 + bC) [1]: 1.195
Leukocytes (L, leukocytes count) [2]: 6356.25 ± 66
PMN (polymorphonuclear leukocytes, differential leucocyte count) [2]: 73.2 ± 4.0%
PA (phagocytic activity) [3]: 53.5 ± 3.5
PI (phagocytosis index) [3]: 20.5 ± 0.9%
NO (nitric oxide synthesis) [4]: 54.355 ± 6.2
OSI (oxidative stress index) [5]: 3.98 ± 3.8
TAR (total antioxidant response) [5]: 1.107 ± 0.003
TOS (total oxidative status) [5]: 44.073 ± 3.8

C=CCNC(=S)NNC(=O)c1sc(-c2ccc(C)cc2)nc1C [Th-8]
b (slope of RM = RM0 + bC, specific hydrophobic surface area) [1]: −2.685
RM0 (lipophilicity estimation parameter, intercept of RM = RM0 + bC) [1]: 1.398
Leukocytes (L, leukocytes count) [2]: 5718.75 ± 104
PMN (polymorphonuclear leukocytes, differential leucocyte count) [2]: 66.6 ± 1.0%
PA (phagocytic activity) [3]: 21 ± 1.1
PI (phagocytosis index) [3]: 21.5 ± 0.9%
NO (nitric oxide synthesis) [4]: 48.793 ± 5.5
OSI (oxidative stress index) [5]: 5.03 ± 4.1
TAR (total antioxidant response) [5]: 1.107 ± 0.002
TOS (total oxidative status) [5]: 55.664 ± 4.2

Cc1nc(-c2ccccc2)sc1-c1nnc(S)n1-c1ccccc1 [Th-9]
b (slope of RM = RM0 + bC, specific hydrophobic surface area) [1]: −2.630
RM0 (lipophilicity estimation parameter, intercept of RM = RM0 + bC) [1]: 1.479
Leukocytes (L, leukocytes count) [2]: 9000 ± 428
PMN (polymorphonuclear leukocytes, differential leucocyte count) [2]: 67.4 ± 3.0%
PA (phagocytic activity) [3]: 20.5 ± 0.9
PI (phagocytosis index) [3]: 21 ± 7.0%
NO (nitric oxide synthesis) [4]: 65.479 ± 4.8
OSI (oxidative stress index) [5]: 6.25 ± 5.2
TAR (total antioxidant response) [5]: 1.101 ± 0.001
TOS (total oxidative status) [5]: 68.780 ± 16.2

Cc1ccc(-c2nc(C)c(-c3nnc(S)n3-c3ccccc3)s2)cc1 [Th-10]
b (slope of RM = RM0 + bC, specific hydrophobic surface area) [1]: −2.948
RM0 (lipophilicity estimation parameter, intercept of RM = RM0 + bC) [1]: 1.754
Leukocytes (L, leukocytes count) [2]: 5606.25 ± 154
PMN (polymorphonuclear leukocytes, differential leucocyte count) [2]: 61.2 ± 3.4%
PA (phagocytic activity) [3]: 23 ± 1.1
PI (phagocytosis index) [3]: 20.5 ± 0.9%
NO (nitric oxide synthesis) [4]: 65.142 ± 5.3
OSI (oxidative stress index) [5]: 4.95 ± 5.4
TAR (total antioxidant response) [5]: 1.095 ± 0.003
TOS (total oxidative status) [5]: 54.164 ± 5.4

Cc1nc(-c2ccc(Br)cc2)sc1-c1nnc(S)n1-c1ccccc1 [Th-11]
b (slope of RM = RM0 + bC, specific hydrophobic surface area) [1]: −3.133
RM0 (lipophilicity estimation parameter, intercept of RM = RM0 + bC) [1]: 2.020
Leukocytes (L, leukocytes count) [2]: 11,137.5 ± 483
PMN (polymorphonuclear leukocytes, differential leucocyte count) [2]: 86.4 ± 2.6%
PA (phagocytic activity) [3]: 19.75 ± 2.4
PI (phagocytosis index) [3]: 21 ± 1.1%
NO (nitric oxide synthesis) [4]: 66.799 ± 5.9
OSI (oxidative stress index) [5]: 6.08 ± 4.9
TAR (total antioxidant response) [5]: 1.092 ± 0.003
TOS (total oxidative status) [5]: 66.394 ± 8.9

Cc1nc(-c2ccccc2)sc1-c1nnc(S)n1C [Th-12]
b (slope of RM = RM0 + bC, specific hydrophobic surface area) [1]: −2.463
RM0 (lipophilicity estimation parameter, intercept of RM = RM0 + bC) [1]: 1.305
Leukocytes (L, leukocytes count) [2]: 8456.25 ± 565
PMN (polymorphonuclear leukocytes, differential leucocyte count) [2]: 78.6 ± 1.0%
PA (phagocytic activity) [3]: 20 ± 1.5
PI (phagocytosis index) [3]: 22.5 ± 3.5%
NO (nitric oxide synthesis) [4]: 70.029 ± 6.4
OSI (oxidative stress index) [5]: 8.27 ± 4.2
TAR (total antioxidant response) [5]: 1.095 ± 0.004
TOS (total oxidative status) [5]: 90.592 ± 4.2
